{"source": "paper PMC8312610", "about": "“F4, a collagen XIX-derived peptide, inhibits tumor angiogenesis through αvβ3 and α5β1 integrin interaction” (Cell Adhesion & Migration, 2021)", "key": {"[1]": {"test_system": "HUVEC (Human Umbilical Vein Endothelial Cells)", "assay": "HUVEC proliferation (crystal violet)", "type": "cell-based", "conditions": "40 μM, 48 h, 5,000 HUVEC per well in ECGM, 560 nm, means ± SD (n = 16), N = 3", "experimental": "Figure 1. […] 5,000 HUVEC were seeded in a 96 well plate and incubated with or without 40 μM NC1(XIX) or F4 for 48 hours. After washing, cells were fixed with glutaraldehyde and stained with crystal violet. Dye was eluted with 10% acetic acid and absorbance was read at 560 nm. The values are the means ± SD (n = 16). The experiment was repeated three times (N = 3) and the results presented in the figure correspond to the more representative one\nHuman Umbilical Vein Endothelial Cells (HUVEC) (Ref C-12253) were purchased from Promocell. They were grown in Endothelial Cell Growth Medium (ECGM) (Promocell, Ref C-22110: Basal medium supplemented with 0.02 mL/mL Fetal Calf Serum, 0.004 mL/mL Endothelial Cell Growth Supplement, 0.1 ng/mL Epidermal Growth Factor (recombinant human), 1 ng/mL Basic Fibroblast Growth Factor (recombinant human), 90 μg/mL Heparin, 1 μg/mL Hydrocortisone) at +37°C in a humid atmosphere containing 5% CO2. PromoCell Detach Kit was used for the detachment of HUVEC according to the manufacturer’s protocols (Promocell, ref C-41200).\nFor cell proliferation measurement, 5,000 HUVEC were seeded in 96-well plates and cultivated in ECGM with or without 40 μM NC1(XIX) or F4 at +37°C in a humid atmosphere containing 5% CO2. […] Dye was eluted with 10% (v/v) acetic acid and absorbance was read at 560 nm."}, "α5β1 integrin": {"test_system": "α5β1 integrin", "assay": "Solid phase assay, direct binding to α5β1", "design": "species or system human", "conditions": "solid phase assays", "text": "Figure 5. F4 directly binds to αvβ3 and α5β1 integrins. Direct interaction between αvβ3 or α5β1 integrin and F4 was studied using solid phase assays as described in the material and method section. The F4 peptide was biotinylated to allow its detection using the streptavidin-peroxidase complex. Different conditions were used. (a-b) The amounts of coated αvβ3 (a) or α5β1 integrin (b) were increased while biotinylated F4 peptide was kept constant. (c-d) The concentration of biotinylated F4 peptide was increased while coated amounts of αvβ3 (c) or α5β1 (d) integrins were kept constant. (e-f) Competitive assays were performed using increasing concentrations of F4 peptide while biotinylated-F4 peptide and αvβ3 (e) or α5β1 (f) integrins were kept constant. […]\nWells of a 96-well plate were coated with α5β1 (ref. 3230-A5-050, R&D systems) and/or αvβ3 integrin (ref. 3050-AV-050, R&D systems) at different concentrations ranging from 26 × 10^−7 mol/L to 0.1 × 10^−7 mol/L (100 μL per well in PBS). […] The intensity of the yellow coloration was measured at 450 nm with an LB940 spectrophotometer (Berthold Technologies).\nThe optimum integrin amount for the coating was determined using the above protocol and the optimum ligand concentration was sought using different dilutions of the biotinylated-F4 peptide ranging from 20.8 × 10^−4 to 0.16 × 10^−4 mol/L."}, "αvβ3 integrin": {"test_system": "αvβ3 integrin", "assay": "Solid phase competition assay with biotinylated-F4, αvβ3", "type": "binding, human", "conditions": "unlabeled F4, molar ratio 1/0 to 1/125, integrin coated at 26 × 10^−7 mol/L, 90 min, room temperature, N = 2", "text": "Figure 5. F4 directly binds to αvβ3 and α5β1 integrins. Direct interaction between αvβ3 or α5β1 integrin and F4 was studied using solid phase assays as described in the material and method section. The F4 peptide was biotinylated to allow its detection using the streptavidin-peroxidase complex. Different conditions were used. (a-b) The amounts of coated αvβ3 (a) or α5β1 integrin (b) were increased while biotinylated F4 peptide was kept constant. (c-d) The concentration of biotinylated F4 peptide was increased while coated amounts of αvβ3 (c) or α5β1 (d) integrins were kept constant. (e-f) Competitive assays were performed using increasing concentrations of F4 peptide while biotinylated-F4 peptide and αvβ3 (e) or α5β1 (f) integrins were kept constant. The solid phase assays were repeated twice (N = 2; n = 2)\nWells of a 96-well plate were coated with α5β1 (ref. 3230-A5-050, R&D systems) and/or αvβ3 integrin (ref. 3050-AV-050, R&D systems) at different concentrations ranging from 26 × 10^−7 mol/L to 0.1 × 10^−7 mol/L (100 μL per well in PBS). The 96-well plate was left overnight at room temperature. The coating was then blocked with TBS containing 5% nonfat dry milk, 1 mM MgCl2 and 1 mM CaCl2 for 2 h at room temperature. […] The intensity of the yellow coloration was measured at 450 nm with an LB940 spectrophotometer (Berthold Technologies). […]"}, "melanoma cell": {"test_system": "melanoma cell", "conditions": "cited from earlier work", "text": "(§1) The aim of the present work was to study the anti-angiogenic properties of F4 peptide. […] By affinity chromatography, we identified αvβ3 and α5β1 integrins as potential receptors for F4 peptide on endothelial cell surface. Using solid phase assays, ... || Type XIX collagen, that belongs to the FACIT family (Fibril-Associated Collagens with Interrupted Triple helices), is a minor collagen associated to the basement membrane zone."}, "mouse melanoma model": {"test_system": "mouse melanoma model", "conditions": "previously demonstrated by the authors, no ref in abstract; cited from earlier work", "text": "as §1"}, "tumor cell": {"test_system": "tumor cell", "design": "method as in PMID 26621838", "conditions": "in vitro; ref [36]; cited from earlier work"}}, "note": "“Also recorded” adds a separate entry of the source. Positions of bridges follow the written chain, without caps; N, C: chain ends. No end group written: not given here."}
{"sequence": "CNPEDCLYPVSHAHQR (disulfide 1-6 (inferred)) [F4, collagen XIX-derived peptide, released by plasmin from type XIX collagen]", "values": [{"measurement": "effect on HUVEC proliferation", "setting": "[1]", "result": "not significantly modified; also recorded: does not affect endothelial cell proliferation"}, {"measurement": "direct binding to α5β1 (conclusion)", "setting": "α5β1 integrin", "result": "binds to both αvβ3 and α5β1 integrins in a direct manner"}, {"measurement": "competition with biotinylated-F4 binding to αvβ3", "setting": "αvβ3 integrin", "result": "decreased consequently"}, {"measurement": "melanoma cell migration", "setting": "melanoma cell; in vitro, previously demonstrated by the authors, no ref in abstract", "result": "able to inhibit melanoma cell migration"}, {"measurement": "melanoma cell migration, compared with NC1(XIX) domain", "setting": "melanoma cell; ref [24]", "result": "reproduced the whole NC1(XIX) domain effect on melanoma cell migration"}, {"measurement": "cancer progression in mouse melanoma model", "setting": "mouse melanoma model", "result": "cancer progression in a mouse melanoma model"}, {"measurement": "tumor cell migration", "setting": "tumor cell", "result": "inhibits in vitro tumor cell migration"}]}
